Measured values from patent US9926282B2, “Phthalazinones and isoquinolinones as rock inhibitors” (BRISTOL-MYERS SQUIBB COMPANY, priority 2013, dated 2018).
pIC50: −log10 of the molar value.

Legend:
[1] = target: ROCK2 (Homo sapiens (Human), UniProt O75116); experiment: ROCK assay (LABCHIP peptide phosphorylation), ROCK2; type: biochemical; conditions: 5 μM ATP, 1.5 μM peptide substrate
[2] = target: ROCK1 (Homo sapiens (Human), UniProt Q13464); experiment: ROCK assay (LABCHIP peptide phosphorylation), ROCK1; type: biochemical; conditions: 5 μM ATP, 1.5 μM peptide substrate; read-out: ROCK1 IC50
Chain of ROCK1 (Q13464 whole entry, species assumed): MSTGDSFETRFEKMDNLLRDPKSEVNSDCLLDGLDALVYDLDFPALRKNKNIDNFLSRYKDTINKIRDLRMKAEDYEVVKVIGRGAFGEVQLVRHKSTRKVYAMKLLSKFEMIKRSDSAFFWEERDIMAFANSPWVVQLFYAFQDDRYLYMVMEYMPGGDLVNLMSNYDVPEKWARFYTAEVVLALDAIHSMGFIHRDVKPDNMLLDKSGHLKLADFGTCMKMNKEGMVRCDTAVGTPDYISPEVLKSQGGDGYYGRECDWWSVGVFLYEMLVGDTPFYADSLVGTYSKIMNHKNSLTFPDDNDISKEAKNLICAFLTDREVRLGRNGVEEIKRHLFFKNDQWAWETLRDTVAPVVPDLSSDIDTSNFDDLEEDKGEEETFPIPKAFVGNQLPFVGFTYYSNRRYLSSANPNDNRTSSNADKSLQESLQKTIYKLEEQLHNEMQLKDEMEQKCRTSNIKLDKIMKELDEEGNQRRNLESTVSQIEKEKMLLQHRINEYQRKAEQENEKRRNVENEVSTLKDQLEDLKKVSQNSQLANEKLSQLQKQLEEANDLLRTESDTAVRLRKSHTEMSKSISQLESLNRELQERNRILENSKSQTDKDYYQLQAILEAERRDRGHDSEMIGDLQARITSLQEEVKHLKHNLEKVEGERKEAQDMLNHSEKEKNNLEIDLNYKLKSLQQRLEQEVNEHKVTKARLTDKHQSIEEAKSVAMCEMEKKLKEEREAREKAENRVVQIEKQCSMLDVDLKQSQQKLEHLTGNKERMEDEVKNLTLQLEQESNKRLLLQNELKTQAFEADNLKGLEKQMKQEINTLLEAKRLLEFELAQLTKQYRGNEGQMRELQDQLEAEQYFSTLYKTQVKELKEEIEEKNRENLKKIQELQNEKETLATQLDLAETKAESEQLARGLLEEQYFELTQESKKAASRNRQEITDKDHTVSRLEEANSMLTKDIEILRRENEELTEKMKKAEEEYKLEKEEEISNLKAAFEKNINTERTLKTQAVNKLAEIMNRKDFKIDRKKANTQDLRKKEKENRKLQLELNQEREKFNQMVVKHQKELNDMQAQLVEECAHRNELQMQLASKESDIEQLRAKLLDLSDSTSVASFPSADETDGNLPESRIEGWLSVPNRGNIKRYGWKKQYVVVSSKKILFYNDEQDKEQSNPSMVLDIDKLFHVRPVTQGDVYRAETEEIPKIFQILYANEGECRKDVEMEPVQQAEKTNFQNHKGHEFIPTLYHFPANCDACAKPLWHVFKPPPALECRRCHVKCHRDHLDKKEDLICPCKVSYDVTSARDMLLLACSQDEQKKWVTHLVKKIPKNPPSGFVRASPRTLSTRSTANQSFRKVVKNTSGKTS

Chain of ROCK2 (O75116 whole entry, species assumed): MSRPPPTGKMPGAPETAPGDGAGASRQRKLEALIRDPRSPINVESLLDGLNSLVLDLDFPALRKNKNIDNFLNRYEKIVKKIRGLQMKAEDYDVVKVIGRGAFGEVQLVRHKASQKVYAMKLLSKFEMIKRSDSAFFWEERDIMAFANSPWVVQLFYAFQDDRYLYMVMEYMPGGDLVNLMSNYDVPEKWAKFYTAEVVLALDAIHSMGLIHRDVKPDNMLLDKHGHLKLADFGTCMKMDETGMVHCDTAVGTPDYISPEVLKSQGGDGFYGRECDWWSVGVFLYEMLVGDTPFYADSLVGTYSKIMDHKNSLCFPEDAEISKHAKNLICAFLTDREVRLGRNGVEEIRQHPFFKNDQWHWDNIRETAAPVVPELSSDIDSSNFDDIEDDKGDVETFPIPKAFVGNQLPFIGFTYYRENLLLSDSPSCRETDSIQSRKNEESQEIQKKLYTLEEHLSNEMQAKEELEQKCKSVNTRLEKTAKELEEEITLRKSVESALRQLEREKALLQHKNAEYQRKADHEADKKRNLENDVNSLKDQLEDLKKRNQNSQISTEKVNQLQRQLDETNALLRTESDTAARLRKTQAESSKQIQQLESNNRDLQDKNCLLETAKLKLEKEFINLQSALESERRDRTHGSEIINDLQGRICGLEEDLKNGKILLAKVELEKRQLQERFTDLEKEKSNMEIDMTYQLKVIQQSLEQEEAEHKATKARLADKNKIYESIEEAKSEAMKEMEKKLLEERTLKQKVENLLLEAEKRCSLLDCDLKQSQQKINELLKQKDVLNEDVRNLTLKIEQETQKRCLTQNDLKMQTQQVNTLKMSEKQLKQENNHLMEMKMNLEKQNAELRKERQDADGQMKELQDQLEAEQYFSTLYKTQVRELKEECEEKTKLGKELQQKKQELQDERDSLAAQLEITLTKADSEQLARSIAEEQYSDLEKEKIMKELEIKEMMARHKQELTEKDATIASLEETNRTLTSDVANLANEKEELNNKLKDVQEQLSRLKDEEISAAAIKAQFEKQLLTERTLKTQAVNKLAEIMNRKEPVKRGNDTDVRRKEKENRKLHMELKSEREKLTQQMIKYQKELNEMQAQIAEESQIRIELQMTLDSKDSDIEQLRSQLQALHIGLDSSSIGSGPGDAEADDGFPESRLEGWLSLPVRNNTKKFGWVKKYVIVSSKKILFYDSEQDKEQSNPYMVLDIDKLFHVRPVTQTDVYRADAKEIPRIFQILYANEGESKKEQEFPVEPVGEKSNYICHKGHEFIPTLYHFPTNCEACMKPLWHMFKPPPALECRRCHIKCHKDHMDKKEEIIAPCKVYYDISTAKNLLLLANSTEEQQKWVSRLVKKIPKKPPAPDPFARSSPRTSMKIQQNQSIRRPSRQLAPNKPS

SMILES | pIC50 [1] | pIC50 [2]
CC1(C)CCc2[nH]cc(C(=O)Nc3ccc(-c4n[nH]c(=O)c5ccccc45)cc3)c2C1=O [Example 97, 5,5-dimethyl-4-oxo-N-[4-(4-oxo-3,4-dihydrophthalazin-1-yl)phenyl]-4,5,6,7-tetrahydro-1H-indole-3-carboxamide] | 6.00 to 7.00 | 6.00 to 7.00
Cn1nc(C(=O)Nc2ccc(-c3n[nH]c(=O)c4ccccc34)cc2)c2ccccc21 [Example 98, 1-methyl-N-[4-(4-oxo-3,4-dihydrophthalazin-1-yl)phenyl]-1H-indazole-3-carboxamide] | 7.00 to 10.00 | 7.00 to 10.00
O=C(Nc1ccc(-c2n[nH]c(=O)c3ccccc23)cc1)c1nn(Cc2ccccc2)c2ccccc12 [Example 99, 1-benzyl-N-[4-(4-oxo-3,4-dihydrophthalazin-1-yl)phenyl]-1H-indazole-3-carboxamide] | 7.00 to 10.00 | 7.00 to 10.00
O=C(Nc1ccc(-c2n[nH]c(=O)c3ccccc23)cc1)c1cnc2ccccn12 [Example 104, N-[4-(4-oxo-3,4-dihydrophthalazin-1-yl)phenyl]imidazo[1,2-a]pyridine-3-carboxamide] | 7.00 to 10.00 | 7.00 to 10.00
Cc1oc2ccc(OCc3ccccc3)cc2c1C(=O)Nc1ccc(-c2n[nH]c(=O)c3ccccc23)cc1 [Example 105, 5-(benzyloxy)-2-methyl-N-[4-(4-oxo-3,4-dihydrophthalazin-1-yl)phenyl]-1-benzofuran-3-carboxamide] | 7.00 to 10.00 | 6.00 to 7.00
O=C(Nc1ccc(-c2n[nH]c(=O)c3ccccc23)cc1)C1Cc2cc(O)ccc2O1 (centres unmarked) [Example 106, 5-hydroxy-N-[4-(4-oxo-3,4-dihydrophthalazin-1-yl)phenyl]-2,3-dihydro-1-benzofuran-2-carboxamide] | 7.00 to 10.00 | 4.30 to 6.00
CCn1c(C(=O)Nc2ccc(-c3n[nH]c(=O)c4ccccc34)cc2)cc2ccccc21 [Example 107, 1-ethyl-N-[4-(4-oxo-3,4-dihydrophthalazin-1-yl)phenyl]-1H-indole-2-carboxamide] | 7.00 to 10.00 | 7.00 to 10.00
CC(C)c1c(C(=O)Nc2ccc(-c3n[nH]c(=O)c4ccccc34)cc2)cn2nc[nH]c(=O)c12 [Example 108, 4-oxo-N-[4-(4-oxo-3,4-dihydrophthalazin-1-yl)phenyl]-5-(propan-2-yl)-3H,4H-pyrrolo[2,1-f][1,2,4]triazine-6-carboxamide] | 7.00 to 10.00 | 6.00 to 7.00

Other lines, results leading:

pIC50 [1] | pIC50 [2] | SMILES
7.00 to 10.00 | 7.00 to 10.00 | Cc1nc2ccccn2c1C(=O)Nc1ccc(-c2n[nH]c(=O)c3ccccc23)cc1 [Example 95, 2-methyl-N-[4-(4-oxo-3,4-dihydrophthalazin-1-yl)phenyl]imidazo[1,2-a]pyridine-3-carboxamide]
7.00 to 10.00 | 6.00 to 7.00 | Cn1c(C(=O)Nc2ccc(-c3n[nH]c(=O)c4ccccc34)cc2)cc2cc(Cl)ccc21 [Example 96, 5-chloro-1-methyl-N-[4-(4-oxo-3,4-dihydrophthalazin-1-yl)phenyl]-1H-indole-2-carboxamide]
7.00 to 10.00 | 7.00 to 10.00 | CCOc1ccc2oc(C)c(C(=O)Nc3ccc(-c4n[nH]c(=O)c5ccccc45)cc3)c2c1 [Example 100, 5-ethoxy-2-methyl-N-[4-(4-oxo-3,4-dihydrophthalazin-1-yl)phenyl]-1-benzofuran-3-carboxamide]
7.00 to 10.00 | 7.00 to 10.00 | Cc1ccc2[nH]c(C(=O)Nc3ccc(-c4n[nH]c(=O)c5ccccc45)cc3)cc2c1 [Example 101, 5-methyl-N-[4-(4-oxo-3,4-dihydrophthalazin-1-yl)phenyl]-1H-indole-2-carboxamide]
7.00 to 10.00 | 7.00 to 10.00 | O=C(Nc1ccc(-c2n[nH]c(=O)c3ccccc23)cc1)c1cnn2ccccc12 [Example 103, N-[4-(4-oxo-3,4-dihydrophthalazin-1-yl)phenyl]pyrazolo[1,5-a]pyridine-3-carboxamide]
